Tests used:
[1] = molecular target: T1, Phosphatidylinositol 4,5-bisphosphate 3-kinase catalytic subunit alpha isoform (Homo sapiens, UniProt P42336); experiment: Inhibition of PI3Kalpha by fluorescene polarization assay
[2] = molecular target: T2, Serine/threonine-protein kinase mTOR (Homo sapiens, UniProt P42345); experiment: Inhibition of mTOR
[3] = molecular target: T1, Phosphatidylinositol 4,5-bisphosphate 3-kinase catalytic subunit alpha isoform; experiment: Inhibition of PI3Kalpha-phosphorylation at S473 residue in human BT20 cells; type: cell-based, BT-20
[4] = molecular target: T2, Serine/threonine-protein kinase mTOR; experiment: Inhibition of mTOR at 1 uM

T1 sequence (P42336 whole entry, canonical isoform): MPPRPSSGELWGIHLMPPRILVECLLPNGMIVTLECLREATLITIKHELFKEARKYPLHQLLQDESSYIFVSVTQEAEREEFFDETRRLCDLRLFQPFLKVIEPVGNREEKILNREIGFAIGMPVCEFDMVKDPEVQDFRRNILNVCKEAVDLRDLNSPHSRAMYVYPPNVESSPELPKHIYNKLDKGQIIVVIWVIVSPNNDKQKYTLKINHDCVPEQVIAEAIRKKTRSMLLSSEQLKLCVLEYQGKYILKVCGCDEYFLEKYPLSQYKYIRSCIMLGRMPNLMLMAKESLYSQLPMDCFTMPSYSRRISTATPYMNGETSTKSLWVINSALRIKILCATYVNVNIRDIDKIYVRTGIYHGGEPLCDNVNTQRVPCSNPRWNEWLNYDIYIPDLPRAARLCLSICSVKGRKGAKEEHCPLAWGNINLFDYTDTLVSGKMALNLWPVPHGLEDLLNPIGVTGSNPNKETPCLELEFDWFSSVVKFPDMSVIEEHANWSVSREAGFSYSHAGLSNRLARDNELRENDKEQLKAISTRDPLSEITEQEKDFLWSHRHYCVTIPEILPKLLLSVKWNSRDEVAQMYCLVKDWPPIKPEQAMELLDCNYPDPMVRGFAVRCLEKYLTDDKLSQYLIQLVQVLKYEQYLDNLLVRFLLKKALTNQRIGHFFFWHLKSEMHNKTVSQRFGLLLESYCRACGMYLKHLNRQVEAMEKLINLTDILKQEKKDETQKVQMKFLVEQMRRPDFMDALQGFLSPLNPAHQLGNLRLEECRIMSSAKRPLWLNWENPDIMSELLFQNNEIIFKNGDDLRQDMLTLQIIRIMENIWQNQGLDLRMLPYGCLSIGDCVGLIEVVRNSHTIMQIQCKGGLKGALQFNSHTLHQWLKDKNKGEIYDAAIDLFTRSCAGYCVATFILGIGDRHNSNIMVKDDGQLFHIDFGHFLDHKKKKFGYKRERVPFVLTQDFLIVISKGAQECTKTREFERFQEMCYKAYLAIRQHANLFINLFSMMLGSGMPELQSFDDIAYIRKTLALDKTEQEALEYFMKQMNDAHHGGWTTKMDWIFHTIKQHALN

Row | Compound | Ki [1] [nM] | Ki [2] [nM] | IC50 [3] [nM] | inhibition [4] [%]
1 | Cc1cc(C(=O)Nc2cnc3[nH]ccc3c2)c2nc(C)nc(N)c2c1 | 0.3 | 17 | 43 | 
2 | Cc1nc(N)c2cccc(C(=O)Nc3cn[nH]c3)c2n1 | 6 | 21 |  | 
3 | Cc1cc(C(=O)Nc2ccc(N(C)C)nc2)c2nc(C)nc(N)c2c1 | 12 | 162 |  | 
4 | COc1ccc(NC(=O)c2cc(C)cc3c(N)nc(C)nc23)cn1 | 0.5 | 265 |  | 
5 | Cc1nc(N)c2cccc(C(=O)Nc3ccc(N(C)C)nc3)c2n1 | 54 | 1000 |  | 57
6 | Cc1cc(C(=O)Nc2ccc(C)nc2)c2nc(C)nc(N)c2c1 | 0.5 | 66 | 88 | 
7 | Cc1nc(N)c2cccc(C(=O)Nc3cnc4[nH]ccc4c3)c2n1 | 1 | 5 |  | 
8 | Cc1cc(C(=O)Nc2cn[nH]c2)c2nc(C)nc(N)c2c1 | 5 | 84 | 24 | 

Continued, values first:

Row | Ki [1] [nM] | Ki [2] [nM] | IC50 [3] [nM] | inhibition [4] [%] | Compound
9 | > 100 |  |  |  | Cc1nc(N)c2ccc(C)c(C(=O)Nc3ccc(N(C)C)nc3)c2n1
10 | 4550 | 3250 |  |  | Cc1ccc(NC(=O)c2c(C)ccc3c(N)nc(C)nc23)cn1
11 | 4550 | 984 |  |  | Cc1nc(N)c2ccc(C)c(C(=O)Nc3ccn[nH]3)c2n1
12 | 7 | 3 | 35 |  | Cc1cc(C(=O)Nc2ccn[nH]2)c2nc(C)nc(N)c2c1
13 | 188 | 1330 |  |  | Cc1nc(N)c2cc(CN(C)C)cc(C(=O)Nc3ccn[nH]3)c2n1
14 | > 100 | 1000 |  | 15 | COc1ccc(NC(=O)c2c(C)ccc3c(N)nc(C)nc23)cn1
15 | 15 | 13 |  |  | Cc1nc(N)c2cc(CN3CCOCC3)cc(C(=O)Nc3ccn[nH]3)c2n1
16 | 631 | 216 |  |  | Cc1nc(N)c2ccc(C)c(C(=O)Nc3cnc4[nH]ccc4c3)c2n1
17 | > 100 |  |  |  | Cc1nc(N)c2ccc(C)c(C(=O)Nc3cn[nH]c3)c2n1
18 | 0.5 | 31 | 112 |  | Cc1ccc(NC(=O)c2cccc3c(N)nc(C)nc23)cn1
